In article PMC5400543, “Design, sythesis and evaluation of a series of 3- or 4-alkoxy substituted phenoxy derivatives as PPARs agonists” (Oncotarget, 2017):

Assays:
[1] = target: T1, PPARγ (Homo sapiens, UniProt P37231); assay: In vitro PPARγ transactivation assay (Gal4-hPPARγLBD luciferase reporter in 293E cells); conditions: 10^−5 M, 24 h, Csamples/Ccontrol, mean±SEM
T1 sequence (P37231 238-503 limits assumed): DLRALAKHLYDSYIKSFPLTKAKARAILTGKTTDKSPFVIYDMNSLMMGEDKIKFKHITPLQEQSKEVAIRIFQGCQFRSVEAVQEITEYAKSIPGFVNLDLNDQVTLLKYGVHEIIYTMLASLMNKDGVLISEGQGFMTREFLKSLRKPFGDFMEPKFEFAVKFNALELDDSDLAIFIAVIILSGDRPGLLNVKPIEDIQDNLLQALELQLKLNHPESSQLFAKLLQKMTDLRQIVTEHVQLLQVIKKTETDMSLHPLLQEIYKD

[2] = target: T2, PPARδ (Homo sapiens, UniProt Q03181); assay: In vitro PPARδ transactivation assay (Gal4-hPPARδLBD luciferase reporter in 293E cells); conditions: for PPARδ Activation Fold: 10^−5 M, 24 h, Csamples/Ccontrol, mean±SEM; for Cmax: read-out: Cmax, concentration at maximum efficiency percentage (Max%), PPARδ, 24 h, multiple concentrations
T2 sequence (Q03181 211-439 limits assumed): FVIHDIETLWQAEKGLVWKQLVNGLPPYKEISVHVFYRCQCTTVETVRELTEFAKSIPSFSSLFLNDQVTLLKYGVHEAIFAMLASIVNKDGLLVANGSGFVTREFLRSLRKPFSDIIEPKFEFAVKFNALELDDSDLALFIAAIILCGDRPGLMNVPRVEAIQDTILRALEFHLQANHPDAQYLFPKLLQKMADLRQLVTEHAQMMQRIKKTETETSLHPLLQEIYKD

[3] = target: T3, PPARα (Homo sapiens, UniProt Q07869); assay: In vitro PPARα transactivation assay (Gal4-hPPARαLBD luciferase reporter in 293E cells); format: cell-based; conditions: 24 h; for PPARα Activation Fold: 10^−5 M, Csamples/Ccontrol, mean±SEM
T3 construct: pcDNA3.1-hPPARαLBD-Gal4DB; expressed in transfected cells; host or cells: 293E cells
T3 sequence (Q07869 239-466 limits assumed): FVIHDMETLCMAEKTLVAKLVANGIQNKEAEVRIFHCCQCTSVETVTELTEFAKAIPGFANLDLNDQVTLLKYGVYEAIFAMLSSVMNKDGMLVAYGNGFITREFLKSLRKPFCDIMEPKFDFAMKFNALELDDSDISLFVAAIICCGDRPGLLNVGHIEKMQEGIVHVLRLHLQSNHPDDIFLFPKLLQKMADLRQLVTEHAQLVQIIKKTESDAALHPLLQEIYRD

[4] = target: T2, PPARδ; assay: cell-based

| SMILES | PPARγ Activation Fold [1] | PPARδ Activation Fold [2] | PPARα Activation Fold [3] | EC50 [4] [nM] | Cmax [2] [nM] | EC50 ([3]; multiple concentrations) [nM] | Cmax ([3]; multiple concentrations, read-out: Cmax, concentration at maximum efficiency percentage (Max%), PPARα) [nM] |
| --- | --- | --- | --- | --- | --- | --- | --- |
| CC(C)(Oc1ccc(OCCn2ccc3ccccc32)cc1)C(=O)O [6a, 2-(4-(2-(1H-indol-1-yl)ethoxy)phenoxy)-2-methylpropanoic acid] | 1.21±0.09 | 0.97±0.09 | 1.00±0.07 |  |  |  |  |
| CC(C)(Oc1ccc(OCCn2c3ccccc3c3ccccc32)cc1)C(=O)O [6b, 2-(4-(2-(9H-carbazol-9-yl)ethoxy)phenoxy)-2-methylpropanoic acid] | 1.19±0.00 | 1.23±0.07 | 0.80±0.00 |  |  |  |  |
| CC(C)(Oc1ccc(OCCCn2ccc3ccccc32)cc1)C(=O)O [6c, 2-(4-(3-(1H-indol-1-yl)propoxy)phenoxy)-2-methylpropanoic acid] | 1.40±0.18 | 0.94±0.02 | 1.78±0.10 |  |  |  |  |
| CC(C)(Oc1ccc(OCCCn2c3ccccc3c3ccccc32)cc1)C(=O)O [6d, 2-(4-(3-(9H-carbazol-9-yl)propoxy)phenoxy)-2-methylpropanoic acid] | 1.57±0.00 | 1.13±0.03 | 1.96±0.17 |  |  |  |  |
| CC(C)(Oc1ccc(OCCCn2cnc3ccccc32)cc1)C(=O)O [6e, 2-(4-(3-(1H-benzo[d]imidazol-1-yl)propoxy)phenoxy)-2-methylpropanoic acid] | 1.26±0.01 | 7.09±0.97 | 1.38±0.06 | 11.1 | 100 |  |  |
| CC(C)(Oc1cccc(OCC(=O)c2ccccc2)c1)C(=O)O [6f, 2-Methyl-2-(3-(2-oxo-2-phenylethoxy)phenoxy)propanoic acid] | 1.22±0.01 | 1.27±0.09 | 1.58±0.09 |  |  |  |  |
| CC(C)(Oc1cccc(OCCCn2ccc3ccccc32)c1)C(=O)O [6h, 2-(3-(3-(1H-indol-1-yl)propoxy)phenoxy)-2-methylpropanoic acid] | 1.57±0.25 | 0.78±0.15 | 3.81±0.83 |  |  | 5300 | 10000 |
| CC(C)(Oc1cccc(OCCCn2c3ccccc3c3ccccc32)c1)C(=O)O [6i, 2-(3-(3-(9H-carbazol-9-yl)propoxy)phenoxy)-2-methylpropanoic acid] | 2.87±0.33 | 0.88±0.13 | 1.32±0.22 |  |  |  |  |
| CC(C)(Oc1cccc(OCCCn2cnc3ccccc32)c1)C(=O)O [6j, 2-(3-(3-(1H-benzo[d]imidazol-1-yl)propoxy)phenoxy)-2-methylpropanoic acid] | 1.17±0.00 | 0.86±0.03 | 0.97±0.15 |  |  |  |  |
| CC(C)(Oc1cccc(OCCCc2ccccc2)c1)C(=O)O [6k, 2-Methyl-2-(3-(3-phenylpropoxy)phenoxy)propanoic acid] | 1.62±0.11 | 0.99±0.22 | 1.50±0.08 |  |  |  |  |
| CC(C)(Oc1cccc(OCc2cccnc2)c1)C(=O)O [6l, 2-Methyl-2-(3-(pyridin-3-ylmethoxy)phenoxy)propanoic acid] | 1.34±0.01 | 6.60±0.90 | 1.39±0.21 | 1.9 | 100 |  |  |
| CC(C)(Oc1ccc(OCCCc2ccccc2)cc1)C(=O)O [6m, 2-Methyl-2-(4-(3-phenylpropoxy)phenoxy)propanoic acid] | 2.26±0.18 | 1.73±0.03 | 2.01±0.22 |  |  |  |  |
| CC(C)(Oc1ccc(OCC(=O)c2ccccc2)cc1)C(=O)O [6n, 2-Methyl-2-(4-(2-oxo-2-phenylethoxy)phenoxy)propanoic acid] | 1.31±0.12 | 1.24±0.06 | 1.16±0.02 |  |  |  |  |
| CC(C)(Oc1cccc(OCCn2ccc3ccccc32)c1)C(=O)O [6o, 2-(3-(2-(1H-indol-1-yl)ethoxy)phenoxy)-2-methylpropanoic acid] | 3.01±0.16 | 1.00±0.24 | 1.01±0.11 |  |  |  |  |
| c1ccc2c(c1)ccn2CCOc1ccc(OCc2nn[nH]n2)cc1 [10a, 1-(2-(4-((2H-tetrazol-5-yl)methoxy)phenoxy)ethyl)-1H-indole] | 1.30±0.06 | 1.28±0.06 | 0.76±0.04 |  |  |  |  |
| c1ccc2c(c1)c1ccccc1n2CCOc1ccc(OCc2nn[nH]n2)cc1 [10b, 9-(2-(4-((2H-tetrazol-5-yl)methoxy)phenoxy)ethyl)-9H-carbazole] | 1.26±0.22 | 1.39±0.21 | 0.55±0.03 |  |  |  |  |
| c1ccc2c(c1)ccn2CCCOc1ccc(OCc2nn[nH]n2)cc1 [10c, 1-(3-(4-((2H-tetrazol-5-yl)methoxy)phenoxy)propyl)-1H-indole] | 0.96±0.01 | 1.01±0.08 | 0.67±0.02 |  |  |  |  |
| c1ccc2c(c1)c1ccccc1n2CCCOc1ccc(OCc2nn[nH]n2)cc1 [10d, 9-(3-(4-((2H-tetrazol-5-yl)methoxy)phenoxy)propyl)-9H-carbazole] | 0.96±0.02 | 1.15±0.22 | 0.50±0.04 |  |  |  |  |
| c1ccc(CCCOc2ccc(OCc3nn[nH]n3)cc2)cc1 [10e, 5-((4-(3-Phenylpropoxy)phenoxy)methyl)-2H-tetrazole] | 1.93±0.23 | 1.26±0.15 | 1.91±0.13 |  |  |  |  |
| c1cncc(COc2ccc(OCc3nn[nH]n3)cc2)c1 [10f, 3-((4-((2H-tetrazol-5-yl)methoxy)phenoxy)methyl)pyridine] | 1.24±0.07 | 1.02±0.09 | 0.80±0.02 |  |  |  |  |
| c1cc(OCCn2ccc3ccccc32)cc(OCc2nn[nH]n2)c1 [10g, 1-(2-(3-((2H-tetrazol-5-yl)methoxy)phenoxy)ethyl)-1H-indole] | 2.83±0.49 | 0.83±0.04 | 0.90±0.05 |  |  |  |  |
| c1cc(OCCCn2ccc3ccccc32)cc(OCc2nn[nH]n2)c1 [10i, 1-(3-(3-((2H-tetrazol-5-yl)methoxy)phenoxy)propyl)-1H-indole] | 1.19±0.09 | 0.77±0.01 | 0.89±0.19 |  |  |  |  |
| c1cc(OCCCn2c3ccccc3c3ccccc32)cc(OCc2nn[nH]n2)c1 [10j, 9-(3-(3-((2H-tetrazol-5-yl)methoxy)phenoxy)propyl)-9H-carbazole] | 0.69±0.01 | 0.88±0.09 | 0.65±0.00 |  |  |  |  |
| c1ccc(CCCOc2cccc(OCc3nn[nH]n3)c2)cc1 [10k, 5-((3-(3-Phenylpropoxy)phenoxy)methyl)-2H-tetrazole] | 1.46±0.20 | 1.24±0.17 | 0.74±0.09 |  |  |  |  |
| c1cncc(COc2cccc(OCc3nn[nH]n3)c2)c1 [10l, 3-((3-((2H-tetrazol-5-yl)methoxy)phenoxy)methyl)pyridine] | 1.07±0.03 | 9.56±2.50 | 1.15±0.06 | 27.3 | 100 |  |  |
